Assay results published in PubChem BioAssay (NCI).
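Growth conditions: 96-well plates. Treatment: test compound, 48 hours, 5 concentrations. Analysis: linear interpolation between bracketing concentrations; unreached endpoints set to highest concentration. TGI marks complete inhibition of growth.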

Legend:
Test in all cases: NCI-60 cell line screen, 48 h
[1] = test system: HOP-92 NSCLC
[2] = test system: HCT-15 colon
[3] = test system: NCI-H460 lung
[4] = test system: A549 NSCLC
[5] = test system: KM12 colon
[6] = test system: OVCAR-4 ovarian
[7] = test system: MDA-MB-435
[8] = test system: MDA-MB-231 breast
[9] = test system: RPMI-8226 leukemia
[10] = test system: HS 578T breast

SMILES	TGI [1] [µM]	TGI [2] [µM]	TGI [3] [µM]	TGI [4] [µM]	TGI [5] [µM]	TGI [6] [µM]	TGI [7] [µM]	TGI [8] [µM]	TGI [9] [µM]	TGI [10] [µM]
CCCO/N=[N+](\[O-])N(CC)CC	> 100	> 100	> 100	> 100	> 100	–	–	–	–	–
NCCCCNCCCNC(=O)CNC(=O)CC(O)C(N)CCCC(NC(=O)C(CN)NC(=O)C(O)CNC(=O)CC(N)c1ccc(O)cc1)C(=O)O (stereo not given)	> 10	> 10	> 10	> 10	> 10	> 10	> 10	> 10	> 10	> 10
Cn1c2c(c3ccccc31)CCN1C(=O)C34CCCC3CC21S4 (stereo not given)	> 100	> 100	–	> 100	> 100	> 100	> 100	> 100	> 100	> 100
Cc1cc(S(=O)(=O)Nc2n[nH]c(Nc3ccccc3)n2)c(SCC(=O)O)cc1Cl	> 100	> 100	> 100	> 100	> 100	> 100	> 100	> 100	> 100	> 100
S=c1[nH]nc(Cn2c3ccc(Br)cc3c3nc4ccccc4nc32)n1C1CCCCC1	19.6	> 100	> 100	> 64.1	> 100	> 100	> 100	> 75.2	59.4	–
CCCCN1C(=O)CC2[C@@H]3CCc4cc(OC)ccc4C3CC[C@]2(C)C1=O (stereo not given in full)	–	> 10	> 10	> 10	> 10	> 10	> 10	> 10	> 10	> 10
Clc1ccc(OCc2nnc(COc3ccc(OCc4nnc(COc5ccc(Cl)cc5Cl)o4)c(Cl)c3)o2)c(Cl)c1	33.5	> 100	> 100	> 100	> 100	–	> 100	63.1	39.6	> 100
COc1cc2c3cc1Oc1c(OC)c(OC)cc4c1C(Cc1ccc(O)c(c1)Oc1ccc(cc1)CC3N(C)CC2)CN(C)C4 (stereo not given)	43.4	33.9	33.7	63.9	26.3	39.1	23.7	28.1	47.6	38.9
O=C1/C(=C/c2ccncc2)C(n2cccc2)c2c(Br)sc(Br)c21 (stereo not given)	7.83	11.1	18.1	34.5	24.7	–	4.66	4.96	7.2	18.1
N#C/C(=C\c1cccc(Br)c1)c1nc2ccccc2c(=O)[nH]1	53.2	> 100	> 100	> 100	> 100	> 100	> 100	> 100	> 100	–
C[C@H](c1ccccc1)N1C(=O)[C@@H](OCc2ccccc2)[C@H]1[C@H](COC(=O)COCc1ccccc1)OCc1ccccc1	> 100	> 100	–	> 100	> 100	–	> 100	> 100	> 100	> 100
CCCCCCCCCCCCNC(=O)CCC(NC(=O)c1ccc(N(C)Cc2cnc3nc(N)nc(N)c3n2)cc1)C(=O)NCCCCCCCCCCCC (stereo not given)	30.9	> 100	–	> 100	> 100	> 100	> 100	> 100	> 100	> 100
CCC(=O)Nc1ccc(NS(=O)(=O)c2ccc(Cl)cc2)cc1	> 100	> 100	> 100	> 100	> 100	> 100	> 100	–	54.3	> 100
c1c(N2CCOCC2)ssc1=[N+]1CCOCC1	> 100	> 100	> 100	> 100	> 100	> 100	–	–	> 100	–
Oc1c(OCc2nnc(CCCCCCCCc3nnc(COc4ccc5ccccc5c4O)o3)o2)ccc2ccccc12	> 100	> 100	> 100	> 100	> 100	> 100	> 100	> 100	> 100	–
CC(=O)OC1CC2(O)C(CCC3(C)C(c4ccc(=O)oc4)CCC32O)C2(C)C1=CC(O)C1OC12 (stereo not given)	0.157	0.32	0.0466	0.0569	0.301	0.121	–	–	0.4	–
N#Cc1nc(CCCN2C(=O)c3ccccc3C2=O)oc1N	–	> 100	> 100	> 100	–	> 100	> 100	> 100	> 100	> 100
N#Cc1nc(C2CCC(=O)O2)oc1N (stereo not given)	–	> 100	> 100	–	> 100	–	> 100	> 100	> 100	> 100
CN(C)CCNc1c([N+](=O)[O-])sc2ccc(Cl)cc12	–	> 100	> 100	> 100	> 100	> 100	> 100	> 100	> 100	> 100
O=c1c(-c2ccccc2)c(SCCN2CCCCCC2)n(-c2ccccc2)c(=S)n1-c1ccccc1	> 100	> 100	> 100	–	> 100	53.6	> 100	–	> 100	> 100
O=c1[nH]c(=O)n(C2CC(O)C(CO)O2)cc1OC/C=C/Cc1ccccc1 (stereo not given)	–	> 100	> 100	> 100	> 100	> 100	> 100	> 100	> 100	> 100
COc1ccc(OC)c(NC(=O)C(=O)C(C(=O)c2ccccc2F)C2OC(=O)c3ccccc32)c1 (stereo not given)	> 100	> 100	> 100	> 100	> 100	> 100	–	–	> 100	–
CCOc1snc(C(Cl)(Cl)Cl)c1Cl	–	> 100	> 100	95.4	56.7	> 100	> 100	> 100	59.1	> 100
